Measured values as given in patent US20260132140A1, “IMIDAZOLYL-AMINO-PYRAZINE-CARBONITRILS AS CHK-1 INHIBITORS” (BenevolentAI Bio Limited, priority 2022, published 2026).

Columns and labels:
human Chk2 kinase = human Chk2 kinase (Homo sapiens, UniProt O96017); experiment: biochemical
human Chk1 kinase = target: T1, human Chk1 kinase (Homo sapiens, UniProt O14757); experiment: biochemical
T1 sequence (O14757 1-476): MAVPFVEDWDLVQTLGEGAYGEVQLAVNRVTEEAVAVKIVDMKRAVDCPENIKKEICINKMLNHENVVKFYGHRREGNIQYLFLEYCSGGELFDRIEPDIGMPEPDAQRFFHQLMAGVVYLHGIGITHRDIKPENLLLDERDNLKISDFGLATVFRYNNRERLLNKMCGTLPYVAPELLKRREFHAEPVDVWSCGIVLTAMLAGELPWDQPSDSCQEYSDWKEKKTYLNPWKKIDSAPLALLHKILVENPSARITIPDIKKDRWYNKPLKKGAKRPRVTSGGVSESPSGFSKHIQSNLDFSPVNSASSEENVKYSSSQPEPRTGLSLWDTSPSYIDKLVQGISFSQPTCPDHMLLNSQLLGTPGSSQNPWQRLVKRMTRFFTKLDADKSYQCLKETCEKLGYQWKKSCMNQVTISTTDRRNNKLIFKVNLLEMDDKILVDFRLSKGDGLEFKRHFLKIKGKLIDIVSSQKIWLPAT

Sequence of human Chk2 kinase (O96017 whole entry): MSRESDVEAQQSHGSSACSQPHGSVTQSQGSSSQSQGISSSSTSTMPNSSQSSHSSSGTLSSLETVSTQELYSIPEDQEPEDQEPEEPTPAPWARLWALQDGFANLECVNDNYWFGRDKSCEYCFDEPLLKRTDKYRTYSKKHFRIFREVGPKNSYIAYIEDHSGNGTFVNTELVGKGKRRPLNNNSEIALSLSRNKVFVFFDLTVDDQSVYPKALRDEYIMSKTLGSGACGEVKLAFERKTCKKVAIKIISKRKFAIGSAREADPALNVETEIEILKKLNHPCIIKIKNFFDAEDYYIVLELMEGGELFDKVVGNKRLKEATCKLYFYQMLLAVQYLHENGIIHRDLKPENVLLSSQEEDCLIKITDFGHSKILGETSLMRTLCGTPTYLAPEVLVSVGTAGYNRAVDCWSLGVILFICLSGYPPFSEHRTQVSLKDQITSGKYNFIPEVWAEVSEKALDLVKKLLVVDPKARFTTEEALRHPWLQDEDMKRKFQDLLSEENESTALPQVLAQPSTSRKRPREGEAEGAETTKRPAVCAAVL

Structure (SMILES)	IC50 (human Chk2 kinase) [nM]	IC50 (human Chk1 kinase) [nM]
COc1cc(NC2CCN(C)CC2)ccc1-n1cnc(Nc2cnc(C#N)cn2)c1 [Example 13, 5-((1-(2-Methoxy-4-((1-methylpiperidin-4-yl)amino)phenyl)-1H-imidazol-4-yl)amino)pyrazine-2-carbonitrile]	10000 to 100000	10 to 31.6
N#Cc1cnc(Nc2cn(-c3ccc(N4CCC(N5CC(F)C5)C4)cc3)cn2)cn1 (single isomer, unassigned) [Example 129, 5-((1-(4-(3-(3-Fluoroazetidin-1-yl)pyrrolidin-1-yl)phenyl)-1H-imidazol-4-yl)amino)pyrazine-2-carbonitrile]	> 100000	31.6 to 100
CCN1CCC(Nc2ccc(-n3cnc(Nc4cnc(C#N)cn4)c3)c(OC)c2)CC1 [Example 41, 5-((1-(4-((1-Ethylpiperidin-4-yl)amino)-2-methoxyphenyl)-1H-imidazol-4-yl)amino)pyrazine-2-carbonitrile]	10000 to 100000	10 to 31.6
CN(C)CC1CN(c2cccc(-n3cnc(Nc4cnc(C#N)cn4)c3)c2)CCO1 (single isomer, unassigned) [Example 107, 5-((1-(3-(2-((Dimethylamino)methyl)morpholino)phenyl)-1H-imidazol-4-yl)amino)pyrazine-2-carbonitrile]	10000 to 100000	31.6 to 100
COc1cc(N2CC[C@@H](N3CCCC3)C2)ccc1-n1cnc(Nc2cnc(C#N)cn2)c1 [Example 51, (R)-5-((1-(4-([1,3′-Bipyrrolidin]-1′-yl)-2-methoxyphenyl)-1H-imidazol-4-yl)amino)pyrazine-2-carbonitrile]	1000 to 10000	< 10
CCCN1CC(Oc2cccc(-n3cnc(Nc4cnc(C#N)cn4)c3)c2)C1 [Example 48, 5-((1-(3-((1-Propylazetidin-3-yl)oxy)phenyl)-1H-imidazol-4-yl)amino)pyrazine-2-carbonitrile]	> 100000	31.6 to 100
C[C@@H]1CCN1C1CCN(c2ccc(-n3cnc(Nc4cnc(C#N)cn4)c3)cc2)C1 (single isomer, unassigned) [Example 136]	> 100000	31.6 to 100
COc1cc(N2CC[C@@H](N3CCC3)C2)ccc1-n1cnc(Nc2cnc(C#N)cn2)c1 [Example 103, (R)-5-((1-(4-(3-(Azetidin-1-yl)pyrrolidin-1-yl)-2-methoxyphenyl)-1H-imidazol-4-yl)amino)pyrazine-2-carbonitrile]	1000 to 10000	< 10
CC(C)N1CCN(c2ccc(-n3cnc(Nc4cnc(C#N)cn4)c3)cc2)CC1 [Example 186, 5-((1-(4-(4-Isopropylpiperazin-1-yl)phenyl)-1H-imidazol-4-yl)amino)pyrazine-2-carbonitrile]	> 100000	100 to 316
N#Cc1cnc(Nc2cn(-c3ccc(CN4CC[C@@H](F)C4)c(Cl)c3)cn2)cn1 [Example 2, (R)-5-((1-(3-Chloro-4-((3-fluoropyrrolidin-1-yl)methyl)phenyl)-1H-imidazol-4-yl)amino)pyrazine-2-carbonitrile]	> 100000	316 to 1000
Cc1cc(-n2cnc(Nc3cnc(C#N)cn3)c2)ccc1N1CC[C@@H](N2CCC2)C1 [Example 104, (R)-5-((1-(4-(3-(Azetidin-1-yl)pyrrolidin-1-yl)-3-methylphenyl)-1H-imidazol-4-yl)amino)pyrazine-2-carbonitrile]	10000 to 100000	10 to 31.6
CCN[C@H]1CN(c2ccc(-n3cnc(Nc4cnc(C#N)cn4)c3)cc2)C[C@H]1F [Example 88, 5-((1-(4-((3S,4R)-3-(Ethylamino)-4-fluoropyrrolidin-1-yl)phenyl)-1H-imidazol-4-yl)amino)pyrazine-2-carbonitrile]	1000 to 10000	10 to 31.6
CN(C)[C@H]1CN(c2ccc(-n3cnc(Nc4cnc(C#N)cn4)c3)cc2)C[C@@H]1F [Example 63, 5-((1-(4-((3S,4S)-3-(Dimethylamino)-4-fluoropyrrolidin-1-yl)phenyl)-1H-imidazol-4-yl)amino)pyrazine-2-carbonitrile]	1000 to 10000	< 10
CN1CCN(Cc2ccc(-n3cnc(Nc4cnc(C#N)cn4)c3)cc2)CC1 [Example 7, 5-((1-(4-((4-Methylpiperazin-1-yl)methyl)phenyl)-1H-imidazol-4-yl)amino)pyrazine-2-carbonitrile]	> 100000	100 to 316
CC1(C)CN(C2CCN(c3ccc(-n4cnc(Nc5cnc(C#N)cn5)c4)cc3)C2)C1 (single isomer, unassigned) [Example 123, 5-((1-(4-(3-(3,3-Dimethylazetidin-1-yl)pyrrolidin-1-yl)phenyl)-1H-imidazol-4-yl)amino)pyrazine-2-carbonitrile]	> 100000	10 to 31.6
CN1CC[C@@H](N(C)c2ccc(-n3cnc(Nc4cnc(C#N)cn4)c3)cc2)C1 [Example 94, (R)-5-((1-(4-(Methyl(1-methylpyrrolidin-3-yl)amino)phenyl)-1H-imidazol-4-yl)amino)pyrazine-2-carbonitrile]	10000 to 100000	31.6 to 100
CN1CCC2(CC1)CCN(c1ccc(-n3cnc(Nc4cnc(C#N)cn4)c3)cc1)C2 [Example 60, 5-((1-(4-(8-Methyl-2,8-diazaspiro[4.5]decan-2-yl)phenyl)-1H-imidazol-4-yl)amino)pyrazine-2-carbonitrile]	10000 to 100000	31.6 to 100
C[C@H]1CCN1C1CCN(c2ccc(-n3cnc(Nc4cnc(C#N)cn4)c3)cc2)C1 (single isomer, unassigned) [Example 137]	> 100000	10 to 31.6
CN1CCOC(c2ccc(-n3cnc(Nc4cnc(C#N)cn4)c3)cc2)C1 (single isomer, unassigned) [Example 105, 5-((1-(4-(4-Methylmorpholin-2-yl)phenyl)-1H-imidazol-4-yl)amino)pyrazine-2-carbonitrile]	10000 to 100000	31.6 to 100
CCNCc1ccc(-n2cnc(Nc3cnc(C#N)cn3)c2)c(OC)c1 [Example 170, 5-((1-(4-((Ethylamino)methyl)-2-methoxyphenyl)-1H-imidazol-4-yl)amino)pyrazine-2-carbonitrile]	10000 to 100000	10 to 31.6
N#Cc1cnc(Nc2cn(-c3ccc(N4CCC(N5CC(F)C5)C4)cc3)cn2)cn1 (single isomer, unassigned) [Example 130, 5-((1-(4-(3-(3-Fluoroazetidin-1-yl)pyrrolidin-1-yl)phenyl)-1H-imidazol-4-yl)amino)pyrazine-2-carbonitrile]	1000 to 10000	10 to 31.6
N#Cc1cnc(Nc2cn(-c3ccc(N4CC[C@@H](NCCC(F)(F)F)C4)cn3)cn2)cn1 [Example 93, (R)-5-((1-(5-(3-((3,3,3-Trifluoropropyl)amino)pyrrolidin-1-yl)pyridin-2-yl)-1H-imidazol-4-yl)amino)pyrazine-2-carbonitrile]	> 100000	10 to 31.6
N#Cc1cnc(Nc2cn(-c3ccc(N4CC5(CCN5)C4)cc3)cn2)cn1 [Example 160, 5-((1-(4-(1,6-Diazaspiro[3.3]heptan-6-yl)phenyl)-1H-imidazol-4-yl)amino)pyrazine-2-carbonitrile]	1000 to 10000	10 to 31.6
Cc1ccc(-n2cnc(Nc3cnc(C#N)cn3)c2)cc1N1CC[C@@H](N(C)C)C1 [Example 58, (R)-5-((1-(3-(3-(Dimethylamino)pyrrolidin-1-yl)-4-methylphenyl)-1H-imidazol-4-yl)amino)pyrazine-2-carbonitrile]	10000 to 100000	31.6 to 100
CC1(C)CCN1C1CCN(c2ccc(-n3cnc(Nc4cnc(C#N)cn4)c3)cc2)C1 (single isomer, unassigned) [Example 140, 5-((1-(4-(3-(2,2-Dimethylazetidin-1-yl)pyrrolidin-1-yl)phenyl)-1H-imidazol-4-yl)amino)pyrazine-2-carbonitrile]	1000 to 10000	< 10
N#Cc1cnc(Nc2cn(-c3ccc(N4CC[C@@H](N5CCOCC5)C4)cc3)cn2)cn1 [Example 72, (R)-5-((1-(4-(3-Morpholinopyrrolidin-1-yl)phenyl)-1H-imidazol-4-yl)amino)pyrazine-2-carbonitrile]	10000 to 100000	10 to 31.6
N#Cc1cnc(Nc2cn(-c3ccc(N4CCN5CCCC5C4)cc3)cn2)cn1 (single isomer, unassigned) [Example 117, 5-((1-(4-(Hexahydropyrrolo[1,2-a]pyrazin-2(1H)-yl)phenyl)-1H-imidazol-4-yl)amino)pyrazine-2-carbonitrile]	> 100000	10 to 31.6
COc1cc(OC2CC3(C2)CN(C)C3)ccc1-n1cnc(Nc2cnc(C#N)cn2)c1 [Example 180, 5-((1-(2-Methoxy-4-((2-methyl-2-azaspiro[3.3]heptan-6-yl)oxy)phenyl)-1H-imidazol-4-yl)amino)pyrazine-2-carbonitrile]	10000 to 100000	31.6 to 100
CN1CC[C@@H]2[C@H]1CCN2c1ccc(-n2cnc(Nc3cnc(C#N)cn3)c2)cc1 [Example 91, 5-((1-(4-((3aR,6aR)-4-Methylhexahydropyrrolo[3,2-b]pyrrol-1(2H)-yl)phenyl)-1H-imidazol-4-yl)amino)pyrazine-2-carbonitrile]	10000 to 100000	10 to 31.6
N#Cc1cnc(Nc2cn(-c3ccc(N4CCC(N5CC6(CCC6)C5)C4)cc3)cn2)cn1 (single isomer, unassigned) [Example 131, 5-((1-(4-(3-(2-Azaspiro[3.3]heptan-2-yl)pyrrolidin-1-yl)phenyl)-1H-imidazol-4-yl)amino)pyrazine-2-carbonitrile]	1000 to 10000	10 to 31.6
